How the values were obtained:
hNaV1.7 [1] = biological target: T1, hNaV1.7 (Homo sapiens (Human), UniProt Q15858); experiment: Competitive binding of tritiated compound to membranes from cells expressing hNav1.7 and the β1 subunit; conditions: 100 pM [3H]compound, 18 h, room temperature; read-out: NaV1.7 395 Membrane Binding IC50
Description: Tritiated compound binding to membranes isolated from cells that heterologously express hNav1.7 and the β1 subunit
Preparation of membranes containing recombinantly expressed sodium channels: Frozen recombinant cell pellets were thawed on ice and diluted to 4 times the cell pellet weight with ice cold 50 mM Tris HCl, pH 7.4 buffer. The cell suspensions were homogenized on ice using a motorized glass dounce homogeniser. Homogenates were further diluted 8.4 times with ice cold 50 mM Tris HCl, pH 7.4 buffer and then centrifuged at 200×g at 4° C. for 15 min. The supernatants were collected and centrifuged at 10000×g at 4° C. for 50 min. The pellets were then re-suspended in 100 mM NaCl, 20 mM Tris HCl, pH 7.4 buffer containing 1% v/v protease inhibitors (Calbiochem) and re-homogenized on ice. The homogenized membranes were then processed through a syringe equipped with a 26 gauge needle. Protein concentrations were determined by Bradford Assay and the membranes were stored at −80° C.
Radioligand Binding Studies: Saturation experiments. A representative compound of formula (I) was tritiated. Three tritiums were incorporated in place of methyl hydrogens to generate [^3H]compound. Binding of this radioligand was performed in 5 mL borosilicate glass test tubes at room temperature. Binding was initiated by adding membranes to increasing concentrations of [^3H]compound in 100 mM NaCl, 20 mM Tris HCl, pH 7.4 buffer containing 0.01% w/v bovine serum albumin (BSA) for 18 h. Non-specific binding was determined in the presence of 1 μM unlabelled compound. After 18 h, the reactants were filtered through GF/C glass fiber filters presoaked in 0.5% w/v polyethylene imine. Filters were washed with 15 mL ice cold 100 mM NaCl, 20 mM Tris HCl, pH 7.4 buffer containing 0.25% BSA to separate bound from free ligand. [^3H]compound bound to filters was quantified by liquid scintillation counting.
Competitive binding experiments. Binding reactions were performed in 96-well polypropylene plates at room temperature for 18 h. In 360 μL, membranes were incubated with 100 pM [^3H]compound and increasing concentrations of Test Compound. Non-specific binding was defined in the presence of 1 μM unlabelled compound. Reactions were transferred and filtered through 96-well glass fiber/C filter plates presoaked with 0.5% polyethylene imine. The filtered reactions were washed 5 times with 200 μL ice cold buffer containing 0.25% BSA. Bound radioactivity was determined by liquid scintillation counting.
Data Analysis: For saturation experiments, non-specific binding was subtracted from total binding to provide specific binding and these values were recalculated in terms of pmol ligand bound per mg protein. Saturation curves were constructed and dissociation constants were calculated using the single site ligand binding model: Beq=(Bmax*X)/(X+Kd), where Beq is the amount of ligand bound at equilibrium, Bmax is the maximum receptor density, Kd is the dissociation constant for the ligand, and X is the free ligand concentration. For competition studies percent inhibition was determined and IC50 values were calculated using a 4 parameter logistic model (% inhibition=(A+((B−A)/(1+((x/C)^D)))) using XLfit, where A and B are the maximal and minimum inhibition respectively, C is the IC50 concentration and D is the (Hill) slope.

hNaV1.7 [2] = biological target: T1, hNaV1.7; experiment: Patch voltage clamp electrophysiology, inactivated state block of NaV1.7 in HEK-293 cells; assay type: cell-based; conditions: HEK cells with β1 subunit, read-out: hNaV 1.7 IC50
Description: Patch voltage clamp electrophysiology allows for the direct measurement and quantification of block of voltage-gated sodium channels (NaV's), and allows the determination of the time- and voltage-dependence of block which has been interpreted as differential binding to the resting, open, and inactivated states of the sodium channel (Hille, B., Journal of General Physiology (1977), 69: 497-515).
The following patch voltage clamp electrophysiology studies were performed on representative compounds of the invention using human embryonic kidney cells (HEK), permanently transfected with an expression vector containing the full-length cDNA coding for the desired human sodium channel α-subunit, grown in culture media containing 10% FBS, 1% PSG, and 0.5 mg/mL G418 at 37° C. with 5% CO2. […] NaV1.7 and NaV1.5 cDNAs (NM_002977 and AC137587; SCN5A, respectively) were stably expressed in HEK-293 cells. The β1 subunit was coexpressed in both the NaV1.7 and NaV1.5 cell lines.
Sodium currents were measured using the patch clamp technique in the whole-cell configuration using either a PatchXpress automated voltage clamp or manually using an Axopatch 200B (Axon Instruments) or Model 2400 (A-M systems) amplifier. The manual voltage clamp protocol was as follows:
The pipette was filled with a solution comprised of: 5 mM NaCl, 10 mM CsCl, 120 mM CsF, 0.1 mM CaCl2, 2 mM MgCl2, 10 mM HEPES, 10 mM EGTA; and adjusted to pH 7.2 with CsOH. The external solution had the following composition: 140 mM NaCl, 5 mM KCl, 2 mM CaCl2, 1 mM MgCl2, 10 mM HEPES; and adjusted to pH 7.4 with NaOH. In some studies, the external sodium was reduced by equimolar replacement with choline. Osmolarity in the CsF internal and NaCl external solutions was adjusted to 300 mOsm/kg and 310 mOsm/kg with glucose, respectively. All recordings were performed at ambient temperature in a bath chamber with a volume of 150 μL. Control sodium currents were measured in 0.5% DMSO. Controls and representative compounds of the invention were applied to the recording chamber through a 4-pinch or 8-pinch valve bath perfusion system manufactured by ALA Scientific Instruments.
Currents were recorded at 40 kHz sampling frequency, filtered at […], and stored using a Digidata-1322A analogue/digital interface with the pClamp software (Axon Instruments). Series resistance compensation was applied (60-80%). […] All statistics in this study are given as mean±SD.
The membrane potential was maintained at a voltage where inactivation of the channel is complete (which was −60 mV for both NaV1.7 and NaV1.5). […] The percent decrease in sodium current following wash-on of compound was taken as the percent block of sodium channels.

T1 sequence (Q15858 whole entry, looked up): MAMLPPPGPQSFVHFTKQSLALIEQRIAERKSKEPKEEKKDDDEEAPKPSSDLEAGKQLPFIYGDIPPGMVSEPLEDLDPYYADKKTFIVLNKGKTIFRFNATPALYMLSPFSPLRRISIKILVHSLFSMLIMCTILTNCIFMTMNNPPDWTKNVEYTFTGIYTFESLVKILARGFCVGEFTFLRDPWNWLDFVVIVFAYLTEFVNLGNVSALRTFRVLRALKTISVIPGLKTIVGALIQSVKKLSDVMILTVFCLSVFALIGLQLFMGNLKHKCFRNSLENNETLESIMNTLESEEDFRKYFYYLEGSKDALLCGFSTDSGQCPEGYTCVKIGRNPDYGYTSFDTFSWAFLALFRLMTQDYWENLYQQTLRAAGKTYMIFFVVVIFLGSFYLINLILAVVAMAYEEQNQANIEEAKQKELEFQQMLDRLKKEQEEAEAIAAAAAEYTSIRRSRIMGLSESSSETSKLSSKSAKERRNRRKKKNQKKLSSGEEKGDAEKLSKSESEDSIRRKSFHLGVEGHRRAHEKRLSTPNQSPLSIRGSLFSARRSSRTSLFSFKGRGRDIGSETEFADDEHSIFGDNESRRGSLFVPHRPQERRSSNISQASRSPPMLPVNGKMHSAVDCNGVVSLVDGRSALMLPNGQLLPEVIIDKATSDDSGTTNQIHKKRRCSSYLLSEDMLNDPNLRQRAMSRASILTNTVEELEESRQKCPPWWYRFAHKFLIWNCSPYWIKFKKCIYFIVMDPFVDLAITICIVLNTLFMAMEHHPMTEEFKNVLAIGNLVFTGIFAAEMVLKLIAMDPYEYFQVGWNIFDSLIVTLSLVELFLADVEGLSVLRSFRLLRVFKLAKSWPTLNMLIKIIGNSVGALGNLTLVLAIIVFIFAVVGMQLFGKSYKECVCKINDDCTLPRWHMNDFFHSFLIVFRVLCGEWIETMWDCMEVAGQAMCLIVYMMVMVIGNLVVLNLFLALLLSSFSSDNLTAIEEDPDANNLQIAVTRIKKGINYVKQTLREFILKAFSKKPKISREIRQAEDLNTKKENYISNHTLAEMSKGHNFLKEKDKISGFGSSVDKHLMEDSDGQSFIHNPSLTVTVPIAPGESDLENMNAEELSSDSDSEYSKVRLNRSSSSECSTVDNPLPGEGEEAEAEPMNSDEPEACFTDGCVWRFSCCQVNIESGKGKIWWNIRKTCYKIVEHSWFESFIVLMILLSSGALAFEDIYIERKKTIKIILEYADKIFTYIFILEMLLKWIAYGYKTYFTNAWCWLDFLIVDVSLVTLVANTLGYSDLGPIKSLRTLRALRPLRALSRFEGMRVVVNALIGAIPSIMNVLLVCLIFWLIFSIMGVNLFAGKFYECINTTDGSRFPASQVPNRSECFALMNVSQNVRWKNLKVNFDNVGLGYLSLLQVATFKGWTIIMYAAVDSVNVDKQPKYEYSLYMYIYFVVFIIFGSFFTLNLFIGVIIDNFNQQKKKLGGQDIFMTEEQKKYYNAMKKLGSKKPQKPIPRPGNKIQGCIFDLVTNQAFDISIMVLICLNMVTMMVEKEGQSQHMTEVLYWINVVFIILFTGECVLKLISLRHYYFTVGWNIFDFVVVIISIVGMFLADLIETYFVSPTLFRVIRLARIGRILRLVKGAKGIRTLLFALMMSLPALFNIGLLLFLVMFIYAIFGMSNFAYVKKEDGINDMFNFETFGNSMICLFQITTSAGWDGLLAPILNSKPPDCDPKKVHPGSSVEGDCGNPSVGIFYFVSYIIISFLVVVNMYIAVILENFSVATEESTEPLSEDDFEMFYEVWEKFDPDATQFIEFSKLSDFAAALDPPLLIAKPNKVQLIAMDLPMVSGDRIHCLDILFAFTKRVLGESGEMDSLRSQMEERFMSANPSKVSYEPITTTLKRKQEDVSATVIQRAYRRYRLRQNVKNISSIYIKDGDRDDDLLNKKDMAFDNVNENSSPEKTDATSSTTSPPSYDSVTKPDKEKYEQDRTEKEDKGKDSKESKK
T1 sequence (Q07699 whole entry partner, looked up): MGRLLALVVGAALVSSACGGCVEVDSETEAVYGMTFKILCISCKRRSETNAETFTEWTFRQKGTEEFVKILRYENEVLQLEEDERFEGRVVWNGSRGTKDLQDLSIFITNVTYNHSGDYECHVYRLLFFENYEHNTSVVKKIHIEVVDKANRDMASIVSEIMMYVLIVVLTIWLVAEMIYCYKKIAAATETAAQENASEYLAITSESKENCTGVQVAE

IC50 (hNaV1.7 [1]) [nM] | IC50 (hNaV1.7 [2]) [nM] | Compound
218 | 41 | CN(C)S(=O)(=O)NC(=O)c1cc(Cl)c(Oc2ccc(OC(F)(F)F)c(Cl)c2)cc1F [Preparation 12, 5-chloro-4-(3-chloro-4-(trifluoromethoxy)phenoxy)-N-(N,N-dimethylsulfamoyl)-2-fluorobenzamide]
253 | 53 | CN(C)S(=O)(=O)NC(=O)c1cc(Cl)c(Oc2ccc(Cl)c(C(F)(F)F)c2)cc1F [Preparation 1, 5-chloro-4-(4-chloro-3-(trifluoromethyl)phenoxy)-N-(N,N-dimethylsulfamoyl)-2-fluorobenzamide]
220 | 34.3 | CN(C)S(=O)(=O)NC(=O)c1cc(Cl)c(COc2cnc(OCC(F)(F)C(F)F)c(Cl)c2)cc1F [Preparation 76]
43 | 6.1 | CC(C)Oc1ncc(OCc2cc(F)c(C(=O)NS(=O)(=O)N3CCC3)cc2Cl)cc1Cl [Preparation 82]
174 | 19 | CN(C)S(=O)(=O)NC(=O)c1cc(Cl)c(COc2ccc(Cl)c(Cl)c2)cc1F [Preparation 5, 5-chloro-4-((3,4-dichlorophenoxy)methyl)-N-(N,N-dimethylsulfamoyl)-2-fluorobenzamide]
28 | 11.6 | CNS(=O)(=O)NC(=O)c1cc(Cl)c(COc2ccc(Cl)c(Cl)c2)cc1F [Preparation 80]
2000 | 226 | NS(=O)(=O)NC(=O)c1cc(Cl)c(Oc2ccc(OC(F)(F)F)c(Cl)c2)cc1F [Preparation 10, 5-chloro-4-(3-chloro-4-(trifluoromethoxy)phenoxy)-2-fluoro-N-sulfamoyl-benzamide]
47.8 | 34 | CN(C)S(=O)(=O)NC(=O)c1cc(Cl)c(Oc2cnc(OCC(F)(F)C(F)F)c(Cl)c2)cc1F [Preparation 30, 5-chloro-4-(5-chloro-6-(2,2,3,3-tetrafluoro-propoxy)pyridin-3-yloxy)-N-(N,N-dimethylsulfamoyl)-2-fluorobenzamide]
145 | 15 | CNS(=O)(=O)NC(=O)c1cc(Cl)c(Oc2ccc(OC(F)(F)F)c(Cl)c2)cc1F [Preparation 11, 5-chloro-4-(3-chloro-4-(trifluoromethoxy)phenoxy)-2-fluoro-N-(N-methyl-sulfamoyl)benzamide]
1250 | 271 | CN(C)S(=O)(=O)NC(=O)c1cc(Cl)c(OCc2ccc(Cl)c(Cl)c2)cc1F [Preparation 23, 5-chloro-4-((3,4-dichlorobenzyl)oxy)-N-(N,N-dimethyl-sulfamoyl)-2-fluoro-benzamide]
109 | 22 | CNS(=O)(=O)NC(=O)c1cc(Cl)c(Oc2ccc(Cl)c(C(F)(F)F)c2)cc1F [Preparation 8, 5-chloro-4-(4-chloro-3-(trifluoromethyl)phenoxy)-2-fluoro-N-(N-methyl-sulfamoyl)benzamide]
11 | 4.3 | C=Cc1cc(C(=O)NS(=O)(=O)N2CCC2)c(F)cc1Oc1cnc(OCC(F)(F)F)c(Cl)c1 [Preparation 92]

Compound | IC50 (hNaV1.7 [1]) [nM] | IC50 (hNaV1.7 [2]) [nM]
CC(C)COc1ncc(Oc2cc(F)c(C(=O)NS(=O)(=O)N3CCCCCC3)cc2Cl)cc1Cl [Preparation 16, N-(azepan-1-ylsulfonyl)-5-chloro-4-((5-chloro-6-isobutoxypyridin-3-yl)oxy)-2-fluorobenzamide] | 542 | 73
CC(C)COc1ncc(Oc2cc(F)c(C(=O)NS(=O)(=O)c3c[nH]cn3)cc2Cl)cc1Cl [Preparation 26, N-((1H-imidazol-4-yl)sulfonyl)-5-chloro-4-((5-chloro-6-isobutoxypyridin-3-yl)oxy)-2-fluorobenzamide] | 77.3 | 9
CC(C)COc1ncc(Oc2cc(F)c(C(=O)NS(=O)(=O)Nc3ccc(C#N)cc3)cc2Cl)cc1Cl [Preparation 21, 5-chloro-4-((5-chloro-6-isobutoxypyridin-3-yl)oxy)-N-(N-(4-cyanophenyl)sulfamoyl)-2-fluoro-benzamide] | 2940 | 828
CC(C)COc1ncc(Oc2cc(F)c(C(=O)NS(=O)(=O)N3CCCCC3)cc2Cl)cc1Cl [Preparation 15, 5-chloro-4-((5-chloro-6-isobutoxypyridin-3-yl)oxy)-2-fluoro-N-(piperidin-1-ylsulfonyl)benzamide] | 58.4 | 64
CC(C)COc1ncc(Oc2cc(F)c(C(=O)NS(=O)(=O)c3cn(C)cn3)cc2Cl)cc1Cl [Preparation 24, 5-chloro-4-((5-chloro-6-isobutoxypyridin-3-yl)oxy)-2-fluoro-N-((1-methyl-1H-imidazol-4-yl)sulfonyl)benzamide] | 578 | 34
CC(C)COc1ncc(Oc2cc(F)c(C(=O)NS(=O)(=O)N3CCCC3)cc2Cl)cc1Cl [Preparation 14, 5-chloro-4-((5-chloro-6-isobutoxypyridin-3-yl)oxy)-2-fluoro-N-(pyrrolidin-1-ylsulfonyl)benzamide] | 30.1 | 44
CC(C)COc1ncc(Oc2cc(F)c(C(=O)NS(=O)(=O)N3CCc4ccccc43)cc2Cl)cc1Cl [Preparation 25, 5-chloro-4-((5-chloro-6-isobutoxypyridin-3-yl)oxy)-2-fluoro-N-(indolin-1-yl-sulfonyl)benzamide] | 388 | 190
CC(C)COc1ncc(Oc2cc(F)c(C(=O)NS(=O)(=O)c3cccnc3)cc2Cl)cc1Cl [Preparation 28, 5-chloro-4-((5-chloro-6-isobutoxypyridin-3-yl)oxy)-2-fluoro-N-(pyridin-3-yl-sulfonyl)benzamide] | 703 | 57
CC(C)COc1ncc(Oc2cc(F)c(C(=O)NS(=O)(=O)N(C)C(C)C)cc2Cl)cc1Cl [Preparation 17, 5-chloro-4-((5-chloro-6-isobutoxypyridin-3-yl)oxy)-2-fluoro-N-(N-isopropyl-N-methylsulfamoyl) benzamide] | 123 | 125
CC(C)COc1ncc(Oc2cc(F)c(C(=O)NS(N)(=O)=O)cc2Cl)cc1Cl [Preparation 4, 5-chloro-4-((5-chloro-6-isobutoxypyridin-3-yl)oxy)-2-fluoro-N-sulfamoylbenzamide] | 70.8 | 9

— US10071957B2, “N-substituted benzamides and methods of use thereof” (GENENTECH, INC., priority 2012, dated 2018)
